The test concerns the target T1, human CRF2α receptor (Homo sapiens, UniProt Q13324).
T1 construct: expressed in transfected cells; host or cells: TeloHEAC
T1 sequence (Q13324 1-411): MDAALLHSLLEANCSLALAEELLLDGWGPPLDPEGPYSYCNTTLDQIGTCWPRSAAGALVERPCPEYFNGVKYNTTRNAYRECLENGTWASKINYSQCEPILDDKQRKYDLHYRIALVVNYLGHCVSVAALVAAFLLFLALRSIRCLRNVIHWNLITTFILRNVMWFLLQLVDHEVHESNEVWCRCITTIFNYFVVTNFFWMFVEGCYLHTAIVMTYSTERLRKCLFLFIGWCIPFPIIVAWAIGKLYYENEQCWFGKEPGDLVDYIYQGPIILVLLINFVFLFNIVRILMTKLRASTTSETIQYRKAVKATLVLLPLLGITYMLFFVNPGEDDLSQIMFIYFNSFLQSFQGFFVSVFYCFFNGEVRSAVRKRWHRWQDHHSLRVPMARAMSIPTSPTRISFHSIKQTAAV
The test can be described thus: cAMP agonism at human CRF2 α receptor in TeloHEAC cells (Example 7). Format: cell-based. The note with it: cAMP HTRF, TeloHEAC cells stably expressing human CRF2 α, 0% HSA; read-out: EC50 [nM], 0% HSA. An outline of the steps: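 Steps: thaw and wash cells; suspend in 1×HBSS, 20 mM HEPES, 0 or 0.1% HSA, 2 mM IBMX; add compound, 30 min RT; lyse with HTRF reagents, 1 h; read 665/620 nm. EC50 calculated, E% versus 1000 nM UCN2.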

Starred links: 1 amine or outer side, 2 acyl side, 3 side chain; linkers in the order of their positions; H or OH if unused. Non-standard residues stand in square brackets, D forms with d. Residues, ends and D or L forms follow the SMILES beside them. Groups on a side chain read outwards from the residue. *: point of attachment. C20 diacid = O=C(O)CCCCCCCCCCCCCCCCCCC(=O)*; C18 diacid = O=C(O)CCCCCCCCCCCCCCCCC(=O)*; γGlu = O=C(O)[C@H](CCC(=O)[*:2])N[*:1]; AEEA = NCCOCCOCC(=O)O; Aib = CC(C)(N)C(=O)O

For `CC[C@H](C)[C@H](N)C(=O)N[C@H](C(=O)N[C@@H](CC(C)C)C(=O)N[C@@H](CO)C(=O)N[C@@H](CC(C)C)C(=O)N[C@@H](CC(=O)O)C(=O)N[C@H](C(=O)N1CCC[C@H]1C(=O)N[C@H](C(=O)N[C@@H](CCCCN)C(=O)N[C@@H](CC(C)C)C(=O)N[C@@H](CCCCNC(=O)COCCOCCNC(=O)COCCOCCNC(=O)CC[C@H](NC(=O)CCCCCCCCCCCCCCCCC(=O)O)C(=O)O)C(=O)N[C@@H](CCC(N)=O)C(=O)N[C@H](C(=O)N[C@@H](CC(C)C)C(=O)N[C@@H](CC(C)C)C(=O)N[C@@H](CCC(=O)O)C(=O)N[C@@H](CCC(N)=O)C(=O)N[C@@H](CCC(=O)O)C(=O)N[C@@H](CCCNC(=N)N)C(=O)N[C@@H](CCC(N)=O)C(=O)N[C@@H](CCCNC(=N)N)C(=O)NC(C)(C)C(=O)N[C@@H](CCC(=O)O)C(=O)N[C@@H](CCCNC(=N)N)C(=O)N[C@@H](CCC(N)=O)C(=O)N[C@@H](CCC(N)=O)C(=O)N[C@@H](C)C(=O)N[C@@H](CCC(=O)O)C(=O)N[C@H](C(=O)N[C@@H](CC(N)=O)C(=O)N[C@H](C(=O)N[C@@H](CCCNC(=N)N)C(=O)N[C@H](C(=O)N[C@@H](CC(C)C)C(=O)N[C@@H](CCC(=O)O)C(=O)N[C@@H](CCCNC(=N)N)C(=O)N[C@H](C(N)=O)C(C)C)[C@@H](C)CC)C(C)C)[C@@H](C)O)[C@@H](C)CC)[C@@H](C)CC)C(C)C)C(C)C` [compound 49] (H-IVLSLDVPIKLK([AEEA-AEEA-γGlu-C18 diacid])QILLEQERQR[Aib]ERQQAETNVRILERV-NH2; N-terminus assumed), the EC50 worked out at 12.7 nM. Regarding `CC[C@H](C)[C@H](N)C(=O)N[C@H](C(=O)N[C@@H](CC(C)C)C(=O)N[C@@H](CO)C(=O)N[C@@H](CC(C)C)C(=O)N[C@@H](CC(=O)O)C(=O)N[C@H](C(=O)N1CCC[C@H]1C(=O)N[C@H](C(=O)N[C@@H](CCCCN)C(=O)N[C@@H](CC(C)C)C(=O)N[C@@H](CCCCNC(=O)COCCOCCNC(=O)COCCOCCNC(=O)CC[C@H](NC(=O)CCCCCCCCCCCCCCCCC(=O)O)C(=O)O)C(=O)N[C@@H](CCC(N)=O)C(=O)N[C@H](C(=O)N[C@@H](CC(C)C)C(=O)N[C@@H](CC(C)C)C(=O)N[C@@H](CCCCN)C(=O)N[C@@H](CCC(N)=O)C(=O)N[C@@H](CCC(=O)O)C(=O)N[C@@H](CCCNC(=N)N)C(=O)N[C@@H](CCC(N)=O)C(=O)N[C@@H](CCCNC(=N)N)C(=O)NC(C)(C)C(=O)N[C@@H](CCC(=O)O)C(=O)N[C@@H](CCCNC(=N)N)C(=O)N[C@@H](CCC(N)=O)C(=O)N[C@@H](CCC(N)=O)C(=O)N[C@@H](C)C(=O)N[C@@H](CCC(=O)O)C(=O)N[C@H](C(=O)N[C@@H](CC(N)=O)C(=O)N[C@H](C(=O)N[C@@H](CCCNC(=N)N)C(=O)N[C@H](C(=O)N[C@@H](CC(C)C)C(=O)N[C@@H](CCC(=O)O)C(=O)N[C@@H](CCCNC(=N)N)C(=O)N[C@H](C(N)=O)C(C)C)[C@@H](C)CC)C(C)C)[C@@H](C)O)[C@@H](C)CC)[C@@H](C)O)C(C)C)C(C)C` [compound 50] (H-IVLSLDVPTKLK([AEEA-AEEA-γGlu-C18 diacid])QILLKQERQR[Aib]ERQQAETNVRILERV-NH2; N-terminus assumed), the EC50 amounted to 17.2 nM. In the case of `CC[C@H](C)[C@H](NC(=O)[C@H](CCC(N)=O)NC(=O)[C@H](CCCCNC(=O)COCCOCCNC(=O)COCCOCCNC(=O)CC[C@H](NC(=O)CCCCCCCCCCCCCCCCC(=O)O)C(=O)O)NC(=O)[C@@H](NC(=O)[C@H](CCCCN)NC(=O)[C@@H](NC(=O)[C@@H]1CCCN1C(=O)[C@@H](NC(=O)[C@H](CC(=O)O)NC(=O)[C@H](CC(C)C)NC(=O)[C@H](CO)NC(=O)[C@H](CC(C)C)NC(=O)[C@@H](NC(=O)[C@@H](N)Cc1ccccc1)[C@@H](C)O)C(C)C)[C@@H](C)O)[C@@H](C)CC)C(=O)N[C@@H](CC(C)C)C(=O)N[C@@H](CC(C)C)C(=O)N[C@@H](CCCCN)C(=O)N[C@@H](CCC(N)=O)C(=O)N[C@@H](CCC(N)=O)C(=O)N[C@@H](CCCCN)C(=O)N[C@@H](CCC(N)=O)C(=O)N[C@@H](CCCCN)C(=O)N[C@@H](CCCCN)C(=O)N[C@@H](CCC(=O)O)C(=O)N[C@@H](CCCNC(=N)N)C(=O)N[C@@H](CCC(N)=O)C(=O)N[C@@H](CCCCN)C(=O)N[C@@H](C)C(=O)N[C@@H](CCC(=O)O)C(=O)N[C@H](C(=O)N[C@@H](CC(N)=O)C(=O)N[C@H](C(=O)N[C@@H](CCC(N)=O)C(=O)N[C@@H](CC(C)C)C(=O)N[C@@H](CC(C)C)C(=O)N[C@@H](CCC(=O)O)C(=O)N[C@@H](CCCNC(=N)N)C(=O)N[C@H](C(N)=O)C(C)C)C(C)C)[C@@H](C)O` [compound 55] (H-FTLSLDVPTKIK([AEEA-AEEA-γGlu-C18 diacid])QILLKQQKQKKERQKAETNVQLLERV-NH2; N-terminus assumed), the EC50 came out at 48.5 nM.

As to `CC[C@H](C)[C@H](NC(=O)[C@H](CCC(N)=O)NC(=O)[C@H](CCCCNC(=O)COCCOCCNC(=O)COCCOCCNC(=O)CC[C@H](NC(=O)CCCCCCCCCCCCCCCCC(=O)O)C(=O)O)NC(=O)[C@H](CC(C)C)NC(=O)CNC(=O)[C@@H](NC(=O)[C@@H]1CCCN1C(=O)[C@@H](NC(=O)[C@H](CC(=O)O)NC(=O)[C@H](CC(C)C)NC(=O)[C@H](CO)NC(=O)[C@H](CC(C)C)NC(=O)[C@@H](NC(=O)[C@@H](N)Cc1ccccc1)[C@@H](C)O)C(C)C)[C@@H](C)CC)C(=O)N[C@@H](CC(C)C)C(=O)N[C@@H](CC(C)C)C(=O)N[C@@H](CCCCN)C(=O)N[C@@H](CCC(N)=O)C(=O)N[C@@H](CCC(N)=O)C(=O)N[C@@H](CCCCN)C(=O)N[C@@H](CCC(N)=O)C(=O)N[C@@H](CCCCN)C(=O)N[C@@H](CCCCN)C(=O)N[C@@H](CCC(=O)O)C(=O)N[C@@H](CCCNC(=N)N)C(=O)N[C@@H](CCC(N)=O)C(=O)N[C@@H](CCC(N)=O)C(=O)N[C@@H](C)C(=O)N[C@@H](CCC(=O)O)C(=O)N[C@H](C(=O)N[C@@H](CC(N)=O)C(=O)N[C@H](C(=O)N[C@@H](CCC(N)=O)C(=O)N[C@@H](CC(C)C)C(=O)N[C@@H](CC(C)C)C(=O)N[C@@H](CCC(=O)O)C(=O)N[C@@H](CCCNC(=N)N)C(=O)N[C@H](C(N)=O)C(C)C)C(C)C)[C@@H](C)O` [compound 56] (H-FTLSLDVPIGLK([AEEA-AEEA-γGlu-C18 diacid])QILLKQQKQKKERQQAETNVQLLERV-NH2), the EC50 came to 22.9 nM. Next, `CC[C@H](C)[C@H](NC(=O)[C@H](CCC(N)=O)NC(=O)[C@H](CCCCNC(=O)COCCOCCNC(=O)COCCOCCNC(=O)CC[C@H](NC(=O)CCCCCCCCCCCCCCCCC(=O)O)C(=O)O)NC(=O)[C@H](CC(C)C)NC(=O)CNC(=O)[C@@H](NC(=O)[C@@H]1CCCN1C(=O)[C@@H](NC(=O)[C@H](CC(=O)O)NC(=O)[C@H](CC(C)C)NC(=O)[C@H](CO)NC(=O)[C@H](CC(C)C)NC(=O)[C@@H](NC(=O)[C@@H](N)Cc1ccccc1)[C@@H](C)O)C(C)C)[C@@H](C)CC)C(=O)N[C@@H](CC(C)C)C(=O)N[C@@H](CC(C)C)C(=O)N[C@@H](CCCCN)C(=O)N[C@@H](CCC(N)=O)C(=O)N[C@@H](CCC(N)=O)C(=O)N[C@@H](CCCCN)C(=O)N[C@@H](CCC(N)=O)C(=O)N[C@@H](CCCCN)C(=O)N[C@@H](CCCCN)C(=O)N[C@@H](CCC(=O)O)C(=O)N[C@@H](CCCNC(=N)N)C(=O)N[C@@H](CCC(N)=O)C(=O)N[C@@H](CCCCN)C(=O)N[C@@H](C)C(=O)N[C@@H](CCC(=O)O)C(=O)N[C@H](C(=O)N[C@@H](CC(N)=O)C(=O)N[C@H](C(=O)N[C@@H](CCC(N)=O)C(=O)N[C@@H](CC(C)C)C(=O)N[C@@H](CC(C)C)C(=O)N[C@@H](CCC(=O)O)C(=O)N[C@@H](CCCNC(=N)N)C(=O)N[C@H](C(N)=O)C(C)C)C(C)C)[C@@H](C)O` [compound 57] (H-FTLSLDVPIGLK([AEEA-AEEA-γGlu-C18 diacid])QILLKQQKQKKERQKAETNVQLLERV-NH2; N-terminus assumed): 38.8 nM; `CC[C@H](C)[C@H](NC(=O)[C@H](CCC(N)=O)NC(=O)[C@H](CCCCNC(=O)COCCOCCNC(=O)COCCOCCNC(=O)CC[C@H](NC(=O)CCCCCCCCCCCCCCCCCCC(=O)O)C(=O)O)NC(=O)[C@@H](NC(=O)[C@H](CCCCN)NC(=O)[C@@H](NC(=O)[C@@H]1CCCN1C(=O)[C@@H](NC(=O)[C@H](CC(=O)O)NC(=O)[C@H](CC(C)C)NC(=O)[C@H](CO)NC(=O)[C@H](CC(C)C)NC(=O)[C@@H](NC(=O)[C@@H](N)Cc1ccccc1)[C@@H](C)O)C(C)C)[C@@H](C)O)[C@@H](C)CC)C(=O)N[C@@H](CC(C)C)C(=O)N[C@@H](CC(C)C)C(=O)N[C@@H](CCCCN)C(=O)N[C@@H](CCC(N)=O)C(=O)N[C@@H](CCC(N)=O)C(=O)N[C@@H](CCCCN)C(=O)N[C@@H](CCC(N)=O)C(=O)N[C@@H](CCCCN)C(=O)N[C@@H](CCCCN)C(=O)N[C@@H](CCC(=O)O)C(=O)N[C@@H](CCCNC(=N)N)C(=O)N[C@@H](CCC(N)=O)C(=O)N[C@@H](CCCCN)C(=O)N[C@@H](C)C(=O)N[C@@H](CCC(=O)O)C(=O)N[C@H](C(=O)N[C@@H](CC(N)=O)C(=O)N[C@H](C(=O)N[C@@H](CCC(N)=O)C(=O)N[C@@H](CC(C)C)C(=O)N[C@@H](CC(C)C)C(=O)N[C@@H](CCC(=O)O)C(=O)N[C@@H](CCCNC(=N)N)C(=O)N[C@H](C(N)=O)C(C)C)C(C)C)[C@@H](C)O` [compound 64] (H-FTLSLDVPTKIK([AEEA-AEEA-γGlu-C20 diacid])QILLKQQKQKKERQKAETNVQLLERV-NH2): 13.2 nM.

In general, EC50 refers to the midpoint of the concentration-response curve.

Values taken from patent US12679878B2, “CRF2 receptor agonists and their use in therapy” (SANOFI, priority 2020, dated 2026).
